Experimental findings from patent US4839375A, “(Aryl or heteroaromatic methyl)-2,2'-bi-1H-imidazoles and their use as anti-hypertensive agents” (Merrell Dow Pharmaceuticals Inc., priority 1987, dated 1989) are described below.

This test addresses T1, dopamine β-hydroxylase (DBH) (Bos taurus, UniProt P15101).
T1 sequence (P15101 1-610): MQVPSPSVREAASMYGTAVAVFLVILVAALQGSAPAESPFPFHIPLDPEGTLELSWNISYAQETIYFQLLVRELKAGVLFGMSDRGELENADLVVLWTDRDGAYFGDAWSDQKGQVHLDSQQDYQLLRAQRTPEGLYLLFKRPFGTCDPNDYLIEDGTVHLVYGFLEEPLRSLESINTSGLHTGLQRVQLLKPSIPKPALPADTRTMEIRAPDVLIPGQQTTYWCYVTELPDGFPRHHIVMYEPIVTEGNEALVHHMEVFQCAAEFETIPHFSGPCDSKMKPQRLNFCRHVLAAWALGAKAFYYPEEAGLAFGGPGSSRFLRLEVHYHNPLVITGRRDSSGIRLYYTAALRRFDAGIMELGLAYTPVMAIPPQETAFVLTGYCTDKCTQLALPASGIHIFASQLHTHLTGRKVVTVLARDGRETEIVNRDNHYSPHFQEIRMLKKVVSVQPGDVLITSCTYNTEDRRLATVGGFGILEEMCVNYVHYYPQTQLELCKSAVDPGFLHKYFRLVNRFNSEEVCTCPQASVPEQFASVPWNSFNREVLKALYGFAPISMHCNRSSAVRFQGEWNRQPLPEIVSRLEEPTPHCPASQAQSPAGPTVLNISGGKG
Put plainly: DBH inhibition, oxygen uptake followed with a polarographic electrode and oxygen monitor. The following applies: ascorbate electron donor, tyramine substrate; pH 4.5 to 5.5, preferably pH 5.0; 20° C. to 40° C., preferably 37° C.; read-out: DBH inhibitory activity, IC50 (concentration at which the reaction is inhibited by 50%). The test is classed as biochemical. On the procedure: The DBH inhibitory properties of the compounds of this invention can readily be determined by standard and well-known procedures. For example, inhibition of DBH was determined by a procedure wherein enzymatic activity was ascertained in aqueous solution in the presence of molecular oxygen, an electron donor such as ascorbate, a substrate such as tyramine, an inhibitor, and the necessary cofactors for the enzyme at a pH of 4.5 to 5.5, preferably pH 5.0, and at a temperature of 20° C. to 40° C., preferably 37° C. The inhibitor was assayed over a range of concentrations. Each reaction was followed by measuring oxygen uptake as an indication of enzyme activity using a polarographic electrode and an oxygen monitor, following the method of S. May, et al., J. Biol. Chem., 256, 2258 (1981).
Regarding `c1c[nH]c(-c2nccn2Cc2ccsc2)n1` [1-(3-thienylmethyl)-2,2'-bi-1H-imidazole], the IC50 was found to be 29 µM. The result for `c1c[nH]c(-c2nc(Cc3ccsc3)c[nH]2)n1` [4-(3-thienylmethyl)-2,2'-bi-1H-imidazole] reads 8.8 µM. Consider `c1csc(Cn2ccnc2-c2ncc[nH]2)c1` [1-(2-Thienylmethyl)-2,2'-bi-1H-imidazole], for which the IC50 is 65.5 µM.
